What was measured:
Type in all cases: cell-based
human TLR9 = target: T1, human TLR9 (Homo sapiens, UniProt Q9NR96); assay: TLR9 inhibition reporter assay (HEK-Blue cells, SEAP reporter); conditions: HEK-Blue cells overexpressing human TLR9; stimulated with ODN2006 5 nM; 22 hour incubation; SEAP readout
T1 sequence (Q9NR96 26-1032): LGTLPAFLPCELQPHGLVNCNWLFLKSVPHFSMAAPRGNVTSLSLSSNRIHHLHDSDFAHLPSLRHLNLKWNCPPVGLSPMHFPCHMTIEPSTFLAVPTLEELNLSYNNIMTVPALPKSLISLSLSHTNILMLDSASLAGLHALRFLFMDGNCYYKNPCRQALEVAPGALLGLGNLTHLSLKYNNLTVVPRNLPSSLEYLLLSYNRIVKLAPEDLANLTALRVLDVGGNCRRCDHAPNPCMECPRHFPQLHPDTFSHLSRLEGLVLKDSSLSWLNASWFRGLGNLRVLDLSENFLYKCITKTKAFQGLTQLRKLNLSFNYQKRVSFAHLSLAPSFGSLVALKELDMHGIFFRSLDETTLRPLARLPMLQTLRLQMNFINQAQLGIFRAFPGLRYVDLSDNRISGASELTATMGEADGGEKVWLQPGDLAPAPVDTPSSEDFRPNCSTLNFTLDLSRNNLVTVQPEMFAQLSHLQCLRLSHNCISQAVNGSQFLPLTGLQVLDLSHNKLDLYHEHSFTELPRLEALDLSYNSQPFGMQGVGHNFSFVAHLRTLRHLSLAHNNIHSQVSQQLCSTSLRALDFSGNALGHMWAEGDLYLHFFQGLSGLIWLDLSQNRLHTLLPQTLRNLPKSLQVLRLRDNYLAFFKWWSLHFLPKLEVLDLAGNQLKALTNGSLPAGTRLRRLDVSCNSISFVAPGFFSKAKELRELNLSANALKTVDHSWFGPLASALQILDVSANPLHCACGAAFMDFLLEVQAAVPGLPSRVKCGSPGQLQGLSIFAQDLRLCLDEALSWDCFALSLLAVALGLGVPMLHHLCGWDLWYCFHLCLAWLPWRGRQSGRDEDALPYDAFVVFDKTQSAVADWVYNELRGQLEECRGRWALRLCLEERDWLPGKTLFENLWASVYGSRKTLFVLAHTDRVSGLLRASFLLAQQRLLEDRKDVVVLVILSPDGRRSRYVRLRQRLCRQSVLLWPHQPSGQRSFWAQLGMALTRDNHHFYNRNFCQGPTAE
In short: (§1)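 HEK-Blue cells with NF-κB/AP-1-driven SEAP pre-treated 30 min with compound (0.05 nM–50 μM), then stimulated with gardiquimod 7.5 μM (TLR7), R848 15.9 μM (TLR8) or ODN2006 5 nM (TLR9). SEAP detected after 22 h at 37 °C; percent inhibition relative to agonist-plus-DMSO and known-inhibitor wells.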

human TLR7 = target: T2, human TLR7 (Homo sapiens, UniProt Q9NYK1); assay: TLR7 inhibition reporter assay (HEK-Blue cells, SEAP reporter); conditions: HEK-Blue cells overexpressing human TLR7; stimulated with gardiquimod 7.5 μM; 22 hour incubation; SEAP readout
T2 sequence (Q9NYK1 27-1049): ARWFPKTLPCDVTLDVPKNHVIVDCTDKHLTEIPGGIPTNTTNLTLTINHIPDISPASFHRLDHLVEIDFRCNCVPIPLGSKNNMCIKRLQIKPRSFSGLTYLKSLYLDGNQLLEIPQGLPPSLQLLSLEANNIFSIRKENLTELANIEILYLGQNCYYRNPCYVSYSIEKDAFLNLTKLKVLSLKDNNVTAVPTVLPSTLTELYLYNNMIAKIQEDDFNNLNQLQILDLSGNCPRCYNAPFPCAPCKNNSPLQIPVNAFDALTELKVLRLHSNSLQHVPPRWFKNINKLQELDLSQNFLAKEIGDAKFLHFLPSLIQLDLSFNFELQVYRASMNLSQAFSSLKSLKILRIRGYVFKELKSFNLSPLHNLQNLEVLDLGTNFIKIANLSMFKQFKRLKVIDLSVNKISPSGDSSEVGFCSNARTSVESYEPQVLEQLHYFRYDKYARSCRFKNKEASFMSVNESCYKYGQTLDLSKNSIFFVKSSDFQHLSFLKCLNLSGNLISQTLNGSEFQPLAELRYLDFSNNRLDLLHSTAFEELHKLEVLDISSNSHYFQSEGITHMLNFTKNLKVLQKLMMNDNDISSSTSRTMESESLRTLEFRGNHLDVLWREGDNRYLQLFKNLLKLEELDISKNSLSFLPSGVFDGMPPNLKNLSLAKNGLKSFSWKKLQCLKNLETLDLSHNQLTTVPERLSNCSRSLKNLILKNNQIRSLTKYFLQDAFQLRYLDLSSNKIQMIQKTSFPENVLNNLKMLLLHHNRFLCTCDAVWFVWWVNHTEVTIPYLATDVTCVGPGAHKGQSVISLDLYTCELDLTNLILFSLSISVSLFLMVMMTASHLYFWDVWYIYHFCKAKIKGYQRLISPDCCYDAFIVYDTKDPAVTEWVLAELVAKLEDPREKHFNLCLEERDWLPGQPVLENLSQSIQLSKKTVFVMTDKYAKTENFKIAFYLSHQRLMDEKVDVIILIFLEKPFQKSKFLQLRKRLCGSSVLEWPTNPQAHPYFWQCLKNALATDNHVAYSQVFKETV
In short: as §1

human TLR8 = target: T3, human TLR8 (Homo sapiens, UniProt Q9NR97); assay: TLR8 inhibition reporter assay (HEK-Blue cells, SEAP reporter); conditions: HEK-Blue cells overexpressing human TLR8; stimulated with R848 15.9 μM; 22 hour incubation; SEAP readout
T3 sequence (Q9NR97 27-1041): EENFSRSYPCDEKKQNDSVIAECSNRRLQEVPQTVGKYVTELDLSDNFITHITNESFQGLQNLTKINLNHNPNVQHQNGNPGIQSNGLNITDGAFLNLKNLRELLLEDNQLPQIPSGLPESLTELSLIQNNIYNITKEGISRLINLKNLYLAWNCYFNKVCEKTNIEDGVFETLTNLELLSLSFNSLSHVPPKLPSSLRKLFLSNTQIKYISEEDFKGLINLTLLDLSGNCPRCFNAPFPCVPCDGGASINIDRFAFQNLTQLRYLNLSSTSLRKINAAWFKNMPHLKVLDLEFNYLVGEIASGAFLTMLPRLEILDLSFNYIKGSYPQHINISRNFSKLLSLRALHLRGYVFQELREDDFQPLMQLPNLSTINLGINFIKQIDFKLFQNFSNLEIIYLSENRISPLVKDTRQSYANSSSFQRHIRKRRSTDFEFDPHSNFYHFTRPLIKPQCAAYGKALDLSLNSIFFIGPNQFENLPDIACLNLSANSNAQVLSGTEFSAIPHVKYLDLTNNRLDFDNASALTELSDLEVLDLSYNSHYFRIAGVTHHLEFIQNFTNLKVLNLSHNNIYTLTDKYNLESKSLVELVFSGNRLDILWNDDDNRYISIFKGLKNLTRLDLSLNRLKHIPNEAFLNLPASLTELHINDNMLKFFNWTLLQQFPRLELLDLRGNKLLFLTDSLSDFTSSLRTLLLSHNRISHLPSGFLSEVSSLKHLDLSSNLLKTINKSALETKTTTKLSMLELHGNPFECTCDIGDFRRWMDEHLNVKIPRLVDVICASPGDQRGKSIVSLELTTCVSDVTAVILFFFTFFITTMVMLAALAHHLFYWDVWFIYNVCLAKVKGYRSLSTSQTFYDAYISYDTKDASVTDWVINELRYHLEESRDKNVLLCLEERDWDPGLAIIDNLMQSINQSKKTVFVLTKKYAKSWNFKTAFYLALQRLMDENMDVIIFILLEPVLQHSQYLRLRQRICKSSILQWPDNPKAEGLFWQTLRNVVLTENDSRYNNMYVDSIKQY
In short: as §1

COc1ccc(-c2cn3c(n2)CC[C@@H](C2CCN(C4CC5CCC(C4)N5C(C)C)CC2)C3)cc1OC (single isomer, unassigned) [Example 137]
IC50 (human TLR9): 0.046 µM | IC50 (human TLR7): 3 µM | IC50 (human TLR8): > 25 µM
